Series [1] concerns HEK293-CCK2i4svR cells. Nature of the series: Radioligand uptake and internalization in HEK293-CCK2i4svR cells. Type of series: cell-based, human. Put shortly: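 Cells incubated at 37 °C with 250 fmol radioligand in DMEM/1% FBS for 1 h ([111In]In-GAS1/2/3 also 15, 30 min, 2 h). Acid wash (glycine pH 2.8) gave membrane-bound and 1 N NaOH lysis gave internalized fractions, gamma-counted. Specific values (minus 1 µM DG2 nonspecific) as % of added activity per well.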

Series [2] can be described thus: Radioligand stability in mice (radio-HPLC of blood and urine). It counts as in vivo. Conditions: mean ± SD. The gist of the method:
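Male Swiss albino mice (n=3) given 2.5–3 nmol radioligand i.v. via tail vein in saline/EtOH 9/1. Blood at 5 min and urine at 30 min pi, EDTA-treated on ice, MeCN-deproteinised, analysed by radio-RP-HPLC; value is mean percent intact radioligand ± SD.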

As for `CC(C)(C)C(=O)CN1C(=O)[C@H](NC(=O)Nc2cccc(C(=O)NCCOCCOCCOCCNC(=O)[C@H](CCC(=O)O)NC(=O)CCC(C(=O)O)N3CCN(CC(=O)[O-])CCN(CC(=O)[O-])CCN(CC(=O)[O-])CC3)c2)CN(C2CCCCC2)c2ccccc21.[177Lu+3]` (stereo in doubt) [[^177Lu]Lu-GAS3], the “Internalized to membrane-bound ratio” value in series [1] was determined as 2.8. In addition, in series [1] (1 h 37 °C, specific, of total added activity), the “Cell uptake (internalized + membrane-bound)” value is given as 7.65 ± 1.31%. Also, the “Intact radioligand in blood” value in series [2] (mice blood collected 5 min pi) is given as 95.8 ± 2.0 (3) %. Moreover, the “Intact radioligand in urine” value in series [2] (mice urine collected 30 min pi) is 88.1 ± 0.4 (3) %.

For the origin of these results see article PMC8954547, “Nonpeptidic Z360-Analogs Tagged with Trivalent Radiometals as Anti-CCK2R Cancer Theranostic Agents: A Preclinical Study” (Pharmaceutics, 2022).
